Measurements published in publication PMC8319603, “Developing C2-Aroyl Indoles as Novel Inhibitors of IDO1 and Understanding Their Mechanism of Inhibition via Mass Spectroscopy, QM/MM Calculations and Molecular Dynamics Simulation” (Frontiers in Chemistry, 2021).
≈ marks a conversion by molar mass, not a printed value.

Legend:
[1] = Metabolic stability in rat liver microsomes; type: in vitro ADME; conditions: for Clearance in animal microsomes: animal microsomal data among rat, dog and monkey; for Rat liver microsomal stability % QH (hepatic extraction ratio): rat liver microsomes
Description: Metabolic stability in mouse, rat and human liver microsomes: Metabolic stability was defined as the percentage of parent compound lost over time in the presence of a metabolically active test system.
The incubation mixtures consisted of liver microsomes 1.0 mg microsomal protein /mL , compound 1 uM or positive control verapamil, 1 uM . The reactions were initiated by adding 1 mM NADPH.
Reactions without NADPH at 0 and 60 min were also incubated to rule out non-NADPH metabolism or chemical instability in the incubation buffer. All reactions were terminated using 200 uL of ice-cold acetonitrile containing internal standard 200 ng/mL of telmisartan at 0, 5, 15, 30 and 60 min. The vials were centrifuged at 4000 rpm for 20 min. The supernatants thus obtained were analyzed on LC-MS/MS to monitor the disappearance of compound. […]

[2] = Metabolic stability in dog liver microsomes; type: in vitro ADME
[3] = Log D determination (octanol/buffer); type: physicochemical; conditions: phosphate buffer at pH 7.4
Excerpt: (§1) For the DMPK studies of the compound 8a-d we used rat as well as human plasmas. Rat plasma was purchased from Hylasco Biotechnology Pvt. Ltd.™ Hyderabad, India. We have not performed any in vivo experiments for this manuscript neither for animals nor for humans. […] Also please note the blood plasma was obtained from the blood of Dr Srinivas R Maddi, who donated it and is the co-author of this article. The DMPK studies were supplemented by kinetic solubility, Log p and Log D determinations, PAMPA permeability, Metabolic and Plasma stability in rat and human, and finally the plasma folding in rat and human. A thorough discussion of each step is mentioned in the supplementary information.
20 µL of IDO1/TDO2 protein (1µg/ml concentration) was added and incubates for 10 min. After that 20 µL of 2 mM L-tryptophan was added and then treated with different test compounds concentration (10 µM, 5 µM, 1 µM, 500 nM, 250 nM). The plate was then sealed well for 2hr incubation process at 37°C. […] The 100 µL of supernatant was transferred in fresh 96 well plate and treated with 100 µL of freshly prepared 2% Ehlrich reagent which was then analyzed by absorbance plate reader at 492 nm to measure the extent of kynurenine formation. […] The IC50 values were calculated in triplicate by using GraphPadPrism Software (GraphPadPrism. Version 5.01 program).22, 23 […]
Log P determination: The partition coefficient was determined by adding compounds to 2 mL deep well plate containing Octanol/water mixture and vortexed the plate for 2 hours at 1200 rpm on a plate shaker. […] Octanol and buffer layers were analysed by HPLC -UV by adjusting the needle height for each Octanol and buffer and the amount of compound distributed i nto each phase was calculated
Log D determination: The distribution coefficient was determined by adding compounds to 2 mL deep well plate containing Octanol/Buffer mixture and vortexed the plate for 2 hours at 1200 rpm on a plate shaker. […]
adjusting the needle height for each Octanol and buffer and the amount of compound distributed into each phase was calculated. […]

Kinetic solubility = type: physicochemical; conditions: for solubility kinetic at 18 h: phosphate buffered saline, aqueous buffer, kinetic from dmso stock, at 1 mg/ml in phosphate buffer at pH 7.4, read-out: Kinetic solubility of the compounds
Excerpt: as §1, with “information. […]” for “information.”
Kinetic solubility: Solubility of the compounds was dete rmined by incubating the compound at 500
µM concentration in phosphate buffer saline, pH7.4 for 18 hours with constant vortex at 500 rpm.
After incubation period, samples were centrifuged and supernatant was injected into HPLC to
determine the solubility. […]

[4] = Metabolic stability in monkey liver microsomes; type: in vitro ADME
[5] = biological target: T1, recombinant protein of human TDO2 enzyme (Homo sapiens, UniProt P48775); test: TDO2 enzymatic assay in vitro (kynurenine formation, absorbance 492 nm); type: biochemical; conditions: read-out: IC50 against TDO2
T1 construct: purchased Biovision CSB-YP023351HU
Description: The recombinant human IDO/TDO protein were purchased from Biovision (Catalog no.: P1096 human recombinant IDO1 and CSB-YP023351HU human recombinant TDO2). All the other HPLC grade solvent were purchased from Merck Pvt. Ltd. The IDO/TDO assays were performed according to the reported procedures.1 and 2, the details of which is mentioned in the SI.
20 µL of IDO1/TDO2 protein (1µg/ml concentration) was added and incubates for 10 min. After that 20 µL of 2 mM L-tryptophan was added and then treated with different test compounds concentration […]
The plate was then sealed well for 2hr incubation process at 37°C. After incubation, 40 µL of 30% TCA solution was added and again incubated for 15 min at 60 °C, the samples were centrifuged for 15 min at 13000 rpm at 4 °C. The 100 µL of supernatant was transferred in fresh 96 well plate and treated with 100 µL of freshly prepared 2% Ehlrich reagent which was then analyzed by absorbance plate reader at 492 nm to measure the extent of kynurenine formation. The DMSO content in the sample was 0.005 %. The final concentration of the compound in deep well plate was 5 µM. The IC50 values were calculated in triplicate by using GraphPadPrism […]
1. Water was substituted with L-tryphtophan
2. Water was substituted with L-tryhtophan and rhIDO/ rhTDO protein.
A = IDO activity in presence of inhibitor

T1 sequence (P48775 whole entry): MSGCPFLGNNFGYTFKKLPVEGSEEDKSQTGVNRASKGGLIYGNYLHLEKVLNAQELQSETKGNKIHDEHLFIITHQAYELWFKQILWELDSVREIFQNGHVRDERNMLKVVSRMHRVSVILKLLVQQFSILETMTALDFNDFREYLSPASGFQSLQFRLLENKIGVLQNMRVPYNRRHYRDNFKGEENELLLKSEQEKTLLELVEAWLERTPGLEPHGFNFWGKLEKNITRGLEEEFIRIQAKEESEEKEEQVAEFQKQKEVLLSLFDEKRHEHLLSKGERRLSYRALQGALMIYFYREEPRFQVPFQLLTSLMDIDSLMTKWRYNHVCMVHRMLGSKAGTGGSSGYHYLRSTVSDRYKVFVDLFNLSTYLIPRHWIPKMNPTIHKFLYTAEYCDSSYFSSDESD

Compound: CC(=O)NCCc1c(C(=O)c2ccc([N+](=O)[O-])cc2)[nH]c2ccccc12 [8d]
- Clearance in animal microsomes [1]: low to moderate clearance
- Rat liver microsomal stability % QH (hepatic extraction ratio) [1]: 2.2%
- Dog liver microsomal stability % QH (hepatic extraction ratio) [2]: 39%
- logD [3]: 1.51
- Solubility (Kinetic solubility): very good
- solubility kinetic at 18 h (Kinetic solubility): 56.9 µg/mL (≈ 162 µM)
- Monkey liver microsomal stability % QH (hepatic extraction ratio) [4]: 74%
- IC50 [5]: 9.16 µM

Compound: CC(=O)NCCc1c(C(=O)c2cc(C(F)(F)F)cc(C(F)(F)F)c2)[nH]c2ccccc12 [8a]
- Rat liver microsomal stability % QH (hepatic extraction ratio) [1]: 12.6%
- Dog liver microsomal stability % QH (hepatic extraction ratio) [2]: 69%
- logD [3]: 1.32
- Solubility (Kinetic solubility): very good
- solubility kinetic at 18 h (Kinetic solubility): 64.1 µg/mL (≈ 145 µM)
- Monkey liver microsomal stability % QH (hepatic extraction ratio) [4]: 97%
- IC50 [5]: 6.95 µM

Compound: COC(=O)NCCc1c(C(=O)c2ccccc2)[nH]c2ccccc12 [8e]
- Clearance in animal microsomes [1]: low to moderate clearance
- Rat liver microsomal stability % QH (hepatic extraction ratio) [1]: 14.9%
- Dog liver microsomal stability % QH (hepatic extraction ratio) [2]: 67%
- logD [3]: 2.95
- Solubility (Kinetic solubility): very good
- solubility kinetic at 18 h (Kinetic solubility): 67.4 µg/mL (≈ 209 µM)
- Monkey liver microsomal stability % QH (hepatic extraction ratio) [4]: 96%
- IC50 [5]: 16.8 µM
